Results on five compounds are retold here after patent publication US20230048888A1, “USE OF TRIAZOLOTRIAZINE DERIVATIVE IN TREATMENT OF DISEASES” (ZHEJIANG VIMGREEN PHARMACEUTICALS, LTD., priority 2019, published 2023).

For orientation: AUC(0-t) means exposure summed from dosing to a finite time, without extrapolation to infinity. One may read the Cmax as the maximum level reached in the sampled fluid or tissue. Usually IC50 stands for the concentration that gives 50% inhibition. Broadly, the Solubility is the dissolved amount per volume that the medium holds. High values mean much dissolved substance, low ones little dissolved substance. What is called solubility is the dissolved amount per volume that the medium holds.

Values after ≈ are worked out from the molar mass of the structure shown. Like-named read-outs stand apart in the source and are kept apart here.

A short description of data set [1]: Pharmacokinetics of test compounds in SD rats (15.2; IV and PO, mixed administration). The data set is classed as in vivo. The note with it: for AUC(0-t) / Cmax / half-life: male, Sprague-Dawley, rat, plasma; for half-life: read-out: T½ (converted). On the procedure: Administration dose: the compounds in this group were all administered in a mixed way, with 6 compounds in each group for mixed PO administration.
Blood was collected based on the blood collection points in the test protocol. 50 μL of plasma sample was added with acetonitrile (containing 5 ng/mL Verapamil) being 3 folds of the volume thereof; the resulting mixture was vortexed for 30 s, and then centrifuged for 15 min at 15,000 rpm at 4° C.; and 10μ L of supernatant was taken for LC-MS/MS analysis.
For each compound, 3 male SD rats weighing 200-220 g were fasted for one night before dosage, but had access to water.
Orally intragastric administration: before intragastric administration and at 0.083 h, 0.25 h, 0.5 h, 1 h, 2 h, 4 h, 8 h and 24 h after administration (for Compounds 40, 27, 40 and 47), or at 0.25 h, 0.5 h, 1 h, 4 h, 6 h and 8 h after administration (for Compounds 44 and 48), orbital blood was collected and put in a test tube that was treated with heparin sodium, and after centrifugation, the supernatant plasma was collected for LC-MS/MS analysis.
The plasma samples were processed according to the method for “sample treatment” and then analyzed by LC-MS/MS, accompanied with the standard curve and quality control samples. At a time point when the upper limit of quantification was exceeded, the samples were diluted 10 or 100 folds for analysis. All measured data were collected and processed by Analyst 1.6.3 software, and the data were calculated and processed with Microsoft Excel. With DAS 3.2.8 software, the pharmacokinetic parameters were calculated by the statistical moment method. The pharmacokinetic parameters mainly include Tmax, t1/2, Cmax, AUC(0-t), etc.

In data set [2] the target is T1, Human adenosine ADORA3 receptor membrane protein (Homo sapiens, UniProt P0DMS8).
T1 construct: purchased PerkinElmer ES-012-M400UA
T1 sequence (P0DMS8 1-318): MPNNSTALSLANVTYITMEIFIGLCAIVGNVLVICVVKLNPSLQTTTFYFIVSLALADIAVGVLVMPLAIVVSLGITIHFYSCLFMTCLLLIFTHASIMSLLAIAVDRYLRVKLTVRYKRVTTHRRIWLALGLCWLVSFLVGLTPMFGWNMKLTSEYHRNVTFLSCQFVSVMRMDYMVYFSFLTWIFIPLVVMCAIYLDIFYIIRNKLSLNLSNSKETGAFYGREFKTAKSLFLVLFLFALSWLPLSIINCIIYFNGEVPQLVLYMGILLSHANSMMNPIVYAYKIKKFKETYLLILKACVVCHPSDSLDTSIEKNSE
The experiment in a line: Radioisotope ligand competitive binding, ADORA3 ([3H] HEMADO). The note with it: ADORA3 (IC50, nM, n = 3), binding test. The protocol: ADORA3: 25 mM HEPES pH 7.4, 10 mM MgCl2, 1 mM CaCl2, 0.5% BSA
4) Preparation of compounds: the test compounds and the reference compounds were separately diluted with 100% DMSO. For the test compounds, the initial concentration was 10 μM, with double secondary wells; 4-fold gradient dilution was carried out at 10 points; and the final working concentration was 0.038 nM-10 μM (for the second and third detection of the test compound against an ADORA2A target, the initial concentration was 2 μM, with double secondary wells, 4-fold gradient dilution was carried out at 10 points, and the final working concentration was 0.0076 nM-2 μM). For the ADORA1, ADORA2A, ADORA2B, and ADORA3 reference compounds, the initial concentration was 1 μM, with double secondary wells, 4-fold gradient dilution was carried out at 10 points, and the final working concentration was 0.0038 nM-1 μM.
1 μL of a sample to be tested and 1 μL of a reference compound were added to a 96-well plate in sequence. […] 100 μL of cells and 100 μL of isotopes were added to all experimental wells. The 96-well plate was sealed; ADORA1, ADORA2B, and ADORA3 were incubated for 1 hour on a shaker (300 rpm) at room temperature (22° C.); and ADORA2A was incubated for 2 hours on a shaker (300 rpm) at room temperature (22° C.). At the same time, a GF/C filter plate was soaked with ADORA1, ADORA2A, ADORA2B, and ADORA3 by using 0.3% PEI for at least 30 minutes at room temperature, at 50 μL/well. After the incubation was completed, the incubated reaction system was collected onto the GF/C filter plate with a Harvester, washed 4 times and then dried for 0.5 hours in an oven at 50° C. The bottom of the dried GF/C filter plate was sealed with a film, 50 μL of scintillation solution was added to each well, which was then sealed with a Top-seal-A film. With Microbeta readings, the data was analyzed by GraphPad Prism 5.0.
% Inhibition=100×(1−(Sample_raw value−Low control_Average)/(High control_Average−Low control_Average))
The data was fitted with “log(inhibitor) vs response-variable slope” in GraphPad Prism 5.0 to obtain IC50.

Data set [3] in a line: Solubility in biological vehicles (SGF, FaSSIF, FeSSIF) at 37° C., HPLC. The conditions noted are these: for Solubility / solubility at 2 h: 2 h; for solubility at 0.5 h / solubility at 2 h: 37 °C, thermodynamic from solid. The class given is physicochemical. On the procedure:
An Agilent HPLC 1260 series instrument was used in an HPLC analysis method. The HPLC method for testing solubility and stability was as follows:
In the experiment, the solubilities of the free-base crystal form and the acetate crystal form were determined at 37° C. in biological vehicles (simulated gastric fluid (SGF), fasted state stimulated intestinal fluid (FaSSIF) and fed state stimulated intestinal fluid (FeSSIF)). 3 mg of a sample was added to a sample bottle, and 1 mL of biologically relevant vehicle was added to the same. The suspension was shaken at a speed of 500 rpm at 37° C.

Data set [4] concerns reserpine-induced dyskinesia. Briefly: Rat reserpine-induced dyskinesia model. The data set is classed as in vivo.
Setting [5] is: fasted state simulated intestinal fluid (FaSSIF), fassif.
Where [6] appears, read: fed state simulated intestinal fluid (FeSSIF), fessif.
[7] abbreviates: simulated gastric fluid (SGF), simulated gastric fluid, SGF.
The mark [8] stands for this setting: 15 mg/kg intragastric, 0-30 min.
Where [9] appears, read: 15 mg/kg intragastric, 0-60 min.
[10] abbreviates: 15 mg/kg intragastric, 30-60 min.
Where [11] appears, read: 7.5 mg/kg intragastric, 0-30 min.
Where [12] appears, read: 7.5 mg/kg intragastric, 0-60 min.
The mark [13] stands for this setting: 7.5 mg/kg intragastric, 30-60 min.
[14] abbreviates: 30 mg/kg intragastric, 0-30 min.
[15] abbreviates: 30 mg/kg intragastric, 0-60 min.
The mark [16] stands for this setting: 30 mg/kg intragastric, 30-60 min.

On to `COCCNc1ccc(CCNc2nc(N)n3nc(-c4ccco4)nc3n2)cc1` [Compound 27, 2-(furan-2-yl)-N5-(4-((2-methoxyethyl)amino)phenethyl)-[1,2,4]triazolo[1,5-a][1,3,5]triazine-5,7-diamine], for which, in data set [1] (SD rats, PO, 10 mg/kg), the Cl_F_pred was found to be 139.069 mL/min/kg, the F was 127.5%, the AUC(0-t) turned out to be 1070 ng·h/mL and the peak level (Cmax) was 325 ng/mL. For the same compound, the half-life in data set [1] (SD rats, PO, 10 mg/kg) was 2.42 h.

Take `Nc1nc(NCCc2ccc(NC3COC3)cc2)nc2nc(-c3ccco3)nn12` [Compound 22, 2-(furan-2-yl)-N5-(4-(oxetan-3-ylamino)phenethyl)-[1,2,4]triazolo[1,5-a][1,3,5]triazine-5,7-diamine]: the IC50 was found to be 872 ± 492 nM in data set [2] (Table 10 (IC50)) and 703 nM in data set [2] (Table 11). In data set [3] (SGF, listed as Free base), this compound registered a Solubility of 712.1 µg/mL (≈ 1810 µM). Moreover, the solubility at 0.5 h is 3.7 µg/mL (≈ 9.43 µM) in data set [3] (setting [5]), 7 µg/mL (≈ 17.8 µM) in data set [3] (setting [6]) and 622 µg/mL (≈ 1590 µM) in data set [3] (setting [7]). Further, the solubility at 2 h in data set [3] (setting [5]) was 4.2 µg/mL (≈ 10.7 µM); in data set [3] (setting [6]) it was 8.8 µg/mL (≈ 22.4 µM); in data set [3] (setting [7]), 712 µg/mL (≈ 1810 µM).

Consider `CCn1c(=O)c2c(nc(/C=C/c3ccc(OC)c(OC)c3)n2C)n(CC)c1=O` [Istradefylline, reference compound], for which, in data set [4] (setting [8]), the Number of standings stood at 44.1 ± 7.9, the Walking distance was 1.6 ± 0.6 m and the Walking time was 19.6 ± 5.9 s. In data set [4] (setting [9]), this compound came in with a Number of standings of 95.7 ± 16.3, a Walking distance of 2.9 ± 0.9 m and a Walking time of 35.1 ± 10.1 s. In data set [4] (setting [10]), the Number of standings amounted to 51.6 ± 9.7, the Walking distance worked out at 1.3 ± 0.4 m and the Walking time amounted to 32.0 ± 13.7 s.

As for `CC(=O)O.Nc1nc(NCCc2ccc(NC3COC3)cc2)nc2nc(-c3ccco3)nn12` [Acetate of Compound 22, 2-(furan-2-yl)-N5-(4-(oxetane-3-ylamino)phenethyl)-[1,2,4]triazolo[1,5-a][1,3,5]triazine-5,7-diamine acetate], the Solubility in data set [3] (SGF, acetate) is >2887 µg/mL. For the same compound, the solubility at 0.5 h in data set [3] (setting [5]) is 9.3 µg/mL; in data set [3] (setting [6]) it was 33.1 µg/mL; in data set [3] (setting [7]) it was > 2890 µg/mL. The solubility at 2 h in data set [3] (setting [5]) is 9.9 µg/mL; in data set [3] (setting [6]), 33.8 µg/mL; in data set [3] (setting [7]) it was > 2890 µg/mL. Also, the Number of standings in data set [4] (setting [11]) was 28.5 ± 7.1; in data set [4] (setting [12]), 56.7 ± 12.6; in data set [4] (setting [13]), 28.3 ± 6.9; in data set [4] (setting [8]) it was 51.9 ± 7.4; in data set [4] (setting [9]), 110 ± 12.7; in data set [4] (setting [10]) it was 58.2 ± 7.7. For the same compound, the Number of standings is 56.5 ± 9.6 in data set [4] (setting [14]), 97.9 ± 15.3 in data set [4] (setting [15]) and 41.5 ± 6.7 in data set [4] (setting [16]). Also, the Walking distance is recorded as 0.9 ± 0.3 m in data set [4] (setting [11]); 2.0 ± 0.6 m in data set [4] (setting [12]); 1.0 ± 0.3 m in data set [4] (setting [13]); 1.8 ± 0.4 m in data set [4] (setting [8]); 3.8 ± 0.6 m in data set [4] (setting [9]); 2.0 ± 0.4 m in data set [4] (setting [10]). Besides, the figures for the Walking distance in data set [4] (setting [14]), in data set [4] (setting [15]) and in data set [4] (setting [16]) were 2.5 ± 1.0 m, 3.9 ± 1.4 m and 1.4 ± 0.4 m, respectively. Moreover, the Walking time was 9.3 ± 4.3 s in data set [4] (setting [11]); 17.8 ± 7.5 s in data set [4] (setting [12]); 16.2 ± 7.6 s in data set [4] (setting [13]); 26.3 ± 5.6 s in data set [4] (setting [8]); 48.5 ± 8.2 s in data set [4] (setting [9]); 40.3 ± 15.6 s in data set [4] (setting [10]). The Walking time came out at 35.8 ± 12.6 s in data set [4] (setting [14]), 52.9 ± 17.5 s in data set [4] (setting [15]) and 33.2 ± 12.2 s in data set [4] (setting [16]).

Regarding `Cn1nnc(-c2ccc(CCNc3nc(N)n4nc(-c5ccco5)nc4n3)cc2)n1` [Compound 40, N5-(4-(2-methyl-2H-tetrazol-5-yl)phenethyl)-2-(furan-2-yl)-[1,2,4]triazolo[1,5-a][1,3,5]triazine-5,7-diamine], the IC50 in data set [2] (Table 10 (IC50)) came out at 2000 ± 1030 nM. In data set [2] (Table 11), the IC50 was found to be 1610 nM. In data set [1] (SD rats, PO, 10 mg/kg), the Cl_F_pred is 22.9228 mL/min/kg, the F is reported as 46.97%, the AUC(0-t) stood at 6600 ng·h/mL and the concentration peaked (Cmax) at 2440 ng/mL. Besides, in data set [1] (SD rats, PO, 10 mg/kg), the half-life was 2.44 h. The half-life in data set [1] (po, […]) is 0.23 h. Also, in data set [1] (SD rats, PO, 2 mg/kg, mixed administration (6 compounds per group)), the AUC(0-t) turned out to be 2360 ng·h/mL.
